Laboratory results from patent US5759835A, “Bacterial nitric oxide synthase” (priority 1995, dated 1998).
Entries after “also recorded” stand apart in the source; their conditions may differ.

Experiments:
NOSNoc [1] = assay: NOSNoc activity, oxyhemoglobin spectrophotometric assay (kinetics and inhibition); type: biochemical, Nocardia species (NRRL 5646); conditions: for Vmax / Km: compound as substrate of NOSNoc; for Ki: model of competitive inhibition; for Mode of inhibition of NO synthesis by NOSNoc: with either L-arginine or L-NOHA as substrate
Experimental: Assays for NOS activity were carried out using a Shimadzu 160 spectrophotometer by observing the increase in absorbance at 401 nm at 25° C. A typical sample assay contained 50 mM potassium phosphate buffer (pH 7.5), 4 μM oxyHb, 100 μM L-arginine of L-NOHA (for kinetic experiments), 100 μM NADPH, 1 mM CaCl2, 10 μM FAD, 10 μM FMN, 80 μM H4 B, 150 μM DTT and 0.1-2 μg enzyme in a final volume of 1 ml. For assays, the reference cuvette contained all components except for L-arginine or L-NOHA. All assays were initiated by adding enzyme.

NOSNoc [2] = assay: Stoichiometry of product formation and cofactor utilization by NOSNoc; type: biochemical, Nocardia species (NRRL 5646); conditions: compound as substrate for NOSNoc
Experimental: NOS activity was also determined by measuring the decrease in absorbance at 340 nm as NADPH was consumed during the conversation of L-arginine to L-citrulline by NOS. Furfine, E. S., et al. (1993) Biochemistry 32, pp. 8512-8517.
Bredt, D. S., and Snyder, S. H. (1989) Proc. Natl. Acad. Sci. U.S.A. 86, pp. 9030-9033. Reaction samples (50 μl, 100 μM arginine and 1 μCi radioactivity)in 2 ml of stop buffer (20 mM HEPES and 2 mM EDTA, pH 5.5) were applied to a fresh 1-ml Dowex AG50W-X8 (Na+ form, 100-200 mesh) column. Labeled citrulline was eluted with 2 ml of distilled water, and the eluates were collected. Aliquots of 0.1 ml of eluate were dissolved in 5 ml of Budget Solve cocktail in 10 ml scintillation vials, and radioactivity was measured in a Beckman LS 3801 liquid scintillation system.
Nitrite was measured spectrophotometrically using Griess reagent. Green, L. C., et al. (1982) Anal. Biochem. 126, pp. 131-138. […] After standing for 15-30 minutes at room temperature, the absorbance at 540 nm was measured. Nitrite concentrations were estimated by comparison with a standard curve at the range of 0-1.0 μg/ml prepared with standard sodium nitrite in water.
Oxygen concentrations were calculated based on the deflection of the chart recorder versus 206 μM oxygen-total oxygen content in the reaction vessel. Koppenol, W. H. (1985) Adv. Free Radical Biol. Med. 1, 91-131.
Stoichiometric determinations of oxygen consumed, NADPH oxidized, NO and citrulline formed, and kinetic experiments were carried out to confirm that L-NOHA is an intermediate in the biosynthesis of nitric oxide from L-arginine.

[3] = EZ-FIT fit, table values are the mean S.D. of three determinations
[4] = Table III, EZ-FIT fit, mean S.D. of three determinations
[5] = L-Arginine as substrate, mean S.D. of three determinations
[6] = N^G -Hydroxy-L-arginine as substrate, mean S.D. of three determinations

Row | Compound | Vmax (NOSNoc [1]) | Km (NOSNoc [1]; [3]) | Vmax (NOSNoc [1]; [4]) | Citrulline formation (NOSNoc [2]) | NADPH consump (NOSNoc [2]) | Nitrile formation (NOSNoc [2]) | Oxygen consump (NOSNoc [2]) | Km (NOSNoc [1]; value as printed in the discussion) | Ki (NOSNoc [1]; [5]) | Ki (NOSNoc [1]; [6]) | Mode of inhibition of NO synthesis by NOSNoc (NOSNoc [1]; listed as L-NMA) | Mode of inhibition of NO synthesis by NOSNoc (NOSNoc [1]; listed as L-NNA)
1 | N=C(N)NCCC[C@H](N)C(=O)O [L-Arginine] | 607 nmol/min/mg protein | 5.7 µM | 274 ± 13 nmole/min/mg protein | 4.21 ± 0.17 nmol | 8.77 ± 0.32 nmol | 4.63 ± 0.28 nmol | 8.89 ± 0.33 nmol |  |  |  |  | 
2 | N=C(NO)NCCC[C@H](N)C(=O)O [N^G -Hydroxy-L-arginine] | 549 nmol/min/mg protein | 15.8 µM | 303 ± 15 nmole/min/mg protein | 4.54 ± 0.21 nmol | 4.38 ± 0.24 nmol | 4.57 ± 0.20 nmol | 4.46 ± 0.16 nmol | 15.8 µM |  |  |  | 
3 | CNC(=N)NCCC[C@H](N)C(=O)O [N^G -methyl-L-arginine] |  |  |  |  |  |  |  |  | 6.2 ± 0.4 µM | 21.4 ± 1.2 µM | typical competitive inhibition; also recorded: reversible competitive inhibitors | 
4 | N=C(NCCC[C@H](N)C(=O)O)N[N+](=O)[O-] [N^G -nitro-L-arginine] |  |  |  |  |  |  |  |  | 9.8 ± 0.6 µM | 21.4 ± 1.2 µM |  | typical competitive inhibition; also recorded: reversible competitive inhibitors
